# Data from PMC4827351 (Chemical Science, 2015).
# Tests used:
# [1] = tested on: Escherichia coli ATCC 25922; assay: Antimicrobial activity assay (CFU counting); format: cell-based; settings: 50 µM peptide, 1 h, 37 °C, 10 mM sodium phosphate buffer containing 1% v/v TSB, n = 3
# Procedure: (§1) The assays were performed according to a literature procedure.[15] Briefly, a 90 μL aliquot of the diluted bacterial culture was added to each well and then to each well was added 10 μL of a 10× concentrated aqueous peptide solution (500 μM) or sterile Milli-Q water as a no-peptide control. The plate was incubated for 1 h (37 °C, 150 rpm). The serial dilution for CFU counting was conducted as previously reported.[15] These assays were performed with at least two independently prepared and purified samples of each peptide and in three independent trials. The resulting averages and standard deviations are reported. […]
# (§2) a bE. coliL. monocytogenes
# (§3) Concentration (µM) Concentration (µM)
# (§4) Figure S4. Antibacterial activity assays against E. coli ATCC 25922 and L. monocytogenes ATCC 19115. The bacteria were treated with 50 µM of each peptide for 1 h at 37 ° C in 10 mM sodium phosphate buffer containing 1% v/v TSB (mean ± SDM, n = 3). An asterisk indicates no […]
# (§5) Retention Time (min) Retention Time (min)
# (§6) Figure S5. In vitro trypsin-catalyzed proteolysis of proHD6. Analytical HPLC traces of trypsin-treated (a) proHD6 or (b) mature HD6 (30 µM x 80 µL) at indicated time points. Absorbance at 220 nm was monitored with a reference wavelength of 500 nm. Method: 10–60% B over 30 min
# [2] = tested on: Listeria monocytogenes ATCC 19115; assay: Antimicrobial activity assay (CFU counting); format: cell-based; settings: 50 µM peptide, 1 h, 37 °C, 10 mM sodium phosphate buffer containing 1% v/v TSB, n = 3
# Procedure: as §1, §2, §3, §4, §5, §6
# [3] = tested on: Salmonella enterica serovar Typhimurium; assay: SEM analysis of bacterial agglutination; format: cell-based; settings: 3 µM proHD6 treated with trypsin before incubation (trypsin inactivated with APMSF), 30 min, 50 mM Tris-maleate pH 6.4
# Procedure: Bacteria were grown aerobically at 37 °C overnight in LB media. The next morning the strains were subcultured and grown to mid-logarithmic phase in LB media. An aliquot of the bacteria (0.5–2 × 10^7 CFU mL^–1) was removed, sedimented by centrifugation (7000g × 2 min, 4 °C), washed twice with 50 mM Tris-maleate buffer, pH 6.4, and then resuspended in 0.5 mL of the 50 mM Tris-maleate buffer. The bacterial suspension was incubated at room temperature for 30 min with buffer control, 0.4 μM APMSF-inactivated trypsin, 3 μM proHD6, 3 μM trypsin-cleaved proHD6, or 3 μM HD6. Trypsin-cleaved proHD6 was prepared by incubating 30 μM proHD6 with 4 μM trypsin (Affimetrix, Santa Clara, CA) for 1 h at room temperature in 50 mM Tris-maleate buffer, pH 6.4. At the end of incubation, the trypsin was inactivated by addition of APMSF (p-amidinophenylmethylsulfonylfluoride HCl, Millipore, 25 μg mL^–1), and the mixture was added to the bacterial suspension. The APMSF-inactivated trypsin was similarly prepared, except that proHD6 was omitted from the preincubation. After a 30 min incubation, the treated bacterial suspensions were sedimented by centrifugation (7000g × 5 min, 4 °C), and the buffer supernatant was carefully removed. […]
# [4] = tested on: L. monocytogenes ATCC 19115; assay: Cuvette-based bacterial agglutination assay; format: cell-based, Listeria monocytogenes; settings: n = 3
# Excerpt: We previously reported a simple cuvette-based in vitro agglutination assay that enables time-dependent monitoring of agglutination of viable bacteria by HD6.[15] We employed this assay to further characterize the trypsin-dependent activity of proHD6 on cultured bacterial cells (Fig. 4a and b). […] In these assays, we defined the “supernatant” as the culture solution in the top portion of the cuvette and the “re-suspension” as the mixture that results from agitating the entire culture after the 6 h incubation period.[15] We observed an ≈1.5-fold log reduction in CFU mL^–1 for the “supernatant” from cultures treated with combination of trypsin and proHD6 relative to the no-peptide control (Fig. 4c). Following “re-suspension”, the total CFU mL^–1 in the cuvette was indistinguishable from that of either the untreated control culture or the bacterial culture treated with proHD6.
# Fig. 4 Bacterial agglutination assays for native and cleaved proHD6. (a) Agglutination of E. coli ATCC 25922 and L. monocytogenes ATCC 19115 in 50% MHB treated with proHD6 in the absence and presence of 0.4 μM trypsin or HD6 (control). (b) Representative images of cuvettes containing E. coli ATCC 25922 or L. monocytogenes ATCC 19115 after incubation with 20 μM peptides for 2 h at room temperature. (c) Plots of colony forming units (CFU mL^–1) of E. coli ATCC 25922 and L. monocytogenes ATCC 19115 after treatment with 20 μM peptides for 6 h (mean ± SDM, n = 3). Supernatant is defined as the clarified medium solution in the top portion of the culture and resuspension is defined as the mixture after thoroughly agitating the heterogeneous solution.
# Stock solutions (50 μL) of HD6 and proHD6 (0, 50, 100, and 200 μM; 10× concentrations) were prepared in sterile Milli-Q water. If trypsin was required, aliquots of a 1 mg mL^–1 stock solution of TPCK-treated trypsin (Worthington) prepared in sterile Milli-Q water were added to solutions of proHD6 to afford a final trypsin concentration of 0.01 mg mL^–1. The assays were then conducted following the reported procedure.[15] […]
sequence,measurement,setting,value
"EPLQAEDDPLQAKAYEADAQEQRGANDQDFAVSFAEDASSSLRALGSTRAFTCHCRRSCYSTEYSYGTCTVMGINHRFCCL (disulfide (positions not given here)) [proHD6, 81-residue propeptide of human α-defensin 6, recombinant, from His6-SUMO-proHD6]",antibacterial activity,[1],does not exhibit antibacterial activity
same,antibacterial activity,[2],does not exhibit antibacterial activity
same,"bacterial agglutination (SEM), trypsin-cleaved",[3],did not agglutinate S. Typhimurium unless it was treated with trypsin
same,total CFU mL^-1 after re-suspension versus untreated control culture or culture treated with proHD6,"[4]; 20 µM proHD6 + trypsin, 6 h, entire culture agitated",indistinguishable
same,"agglutination of bacterial culture in cuvette, with trypsin","[4]; proHD6 + 0.4 µM (0.01 mg/mL) trypsin, 10^8 CFU mL^-1, 50% MHB, room temperature",bacterial agglutination and sedimentation occurred
same,agglutination of bacterial culture in cuvette,"[4]; proHD6 up to 20 µM, no trypsin, 10^8 CFU mL^-1, 50% MHB, 6 h, room temperature",remained homogeneous
